The nature of series [1]: wn = mass fraction of the nth substance listed. To be noted: 298.15 K; 101.1 kPa; Liquid; Vibrating tube method; w1 = 0.85.
Series [2] in a line: refractive index (Na D-line) (dimensionless); wn = mass fraction of the nth substance listed. To be noted: 298.15 K; 101.1 kPa; Liquid; Standard Abbe refractometry; w1 = 0.85.
Series [3] in a line: refractive index (Na D-line) (dimensionless). To be noted: 298.15 K; 101.33 kPa; Liquid; Standard Abbe refractometry.
The conditions of series [4]: 298.15 K; 101.33 kPa; Liquid; Vibrating tube method.

± gives the expanded uncertainty stated by the source.

One may read the mass density as the mass of a sample divided by its volume. For orientation: refractive index means the speed of light in vacuum divided by its phase velocity in the sample. With `O=P(O)(O)O` [phosphoric acid] + O, in series [1], the mass density is 1682.8 ± 2.5 kg/m3. In addition, in series [2], the refractive index is given as 1.432 ± 0.0005.

Regarding `O` [water], in series [3], the refractive index came to 1.3326 ± 0.0005. Regarding `CC1COC(=O)O1` (stereo not given) [4-methyl-1,3-dioxolan-2-one], in series [3], the refractive index is given as 1.419 ± 0.0005. Besides, the mass density in series [4] worked out at 1198.3 ± 2.4 kg/m3.

The values are drawn from the NIST ThermoML archive (doi:10.1016/j.jct.2016.09.008).
